Inconclusive results and toxic doses are left out. Cut-off read from the data, not from the text of the source: active = T/C of 150% or more; inactive = T/C below 125%.
Test system: L1210 leukemia ip in BDF1 mice, survival T/C
Assay: NCI In Vivo Anticancer Drug Screen. Data for tumor model L1210 Leukemia (intraperitoneal) in B6D2F1 (BDF1) mice
Conditions: endpoint: mean survival time, higher = longer survival
Outline: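 Antitumor effect is assessed in tumor-bearing animals. Survival in the compound arm is compared with a vehicle-dosed control arm and expressed as their quotient.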

[1] = dose: 5.0 mg/kg/injection, schedule: Q01DX001 (ip), vehicle: saline
[2] = dose: 100.0 mg/kg/injection, schedule: Q01DX001 (ip), vehicle: saline
[3] = dose: 200.0 mg/kg/injection, schedule: Q01DX001 (ip), vehicle: saline
[4] = dose: 400.0 mg/kg/injection, schedule: Q01DX001 (ip), vehicle: saline
[5] = dose: 100.0 mg/kg/injection, schedule: Q04DX003 (ip), vehicle: saline with Tween-80
[6] = dose: 200.0 mg/kg/injection, schedule: Q04DX003 (ip), vehicle: saline with Tween-80
[7] = dose: 100.0 mg/kg/injection, schedule: Q01DX009 (ip), vehicle: saline
[8] = dose: 100.0 mg/kg/injection, schedule: Q04DX003 (ip), vehicle: saline
[9] = dose: 200.0 mg/kg/injection, schedule: Q01DX009 (ip), vehicle: saline
[10] = dose: 200.0 mg/kg/injection, schedule: Q04DX003 (ip), vehicle: saline
[11] = dose: 400.0 mg/kg/injection, schedule: Q04DX003 (ip), vehicle: saline
[12] = dose: 100.0 mg/kg/injection, schedule: Q01DX009 (ip), vehicle: Klucel (hydroxypropylcellulose) (HPC)
[13] = dose: 100.0 mg/kg/injection, schedule: Q04DX003 (ip), vehicle: Klucel (hydroxypropylcellulose) (HPC)
[14] = dose: 200.0 mg/kg/injection, schedule: Q01DX009 (ip), vehicle: Klucel (hydroxypropylcellulose) (HPC)
[15] = dose: 200.0 mg/kg/injection, schedule: Q04DX003 (ip), vehicle: Klucel (hydroxypropylcellulose) (HPC)
[16] = dose: 400.0 mg/kg/injection, schedule: Q04DX003 (ip), vehicle: Klucel (hydroxypropylcellulose) (HPC)
[17] = dose: 100.0 mg/kg/injection, schedule: Q01DX001 (ip), vehicle: Klucel (hydroxypropylcellulose) (HPC)
[18] = dose: 200.0 mg/kg/injection, schedule: Q01DX001 (ip), vehicle: Klucel (hydroxypropylcellulose) (HPC)
[19] = dose: 50.0 mg/kg/injection, schedule: Q01DX009 (ip), vehicle: saline
[20] = dose: 100.0 mg/kg/injection, schedule: Q01DX009 (ip), vehicle: other
[21] = dose: 100.0 mg/kg/injection, schedule: Q04DX003 (ip), vehicle: other
[22] = dose: 200.0 mg/kg/injection, schedule: Q04DX003 (ip), vehicle: other
[23] = dose: 400.0 mg/kg/injection, schedule: Q04DX003 (ip), vehicle: other
[24] = dose: 400.0 mg/kg/injection, schedule: Q01DX009 (ip), vehicle: Klucel (hydroxypropylcellulose) (HPC)

Measured: T/C

NC(N)=N/N=C1\CCCC\C1=N/N=C(N)N
inactive: dose: 15.0 mg/kg/injection, schedule: Q01DX Z (ip), vehicle: carboxymethylcellulose (CMC) 97 % of control | dose: 30.0 mg/kg/injection, schedule: Q01DX Z (ip), vehicle: carboxymethylcellulose (CMC) 95 % of control | dose: 60.0 mg/kg/injection, schedule: Q01DX Z (ip), vehicle: carboxymethylcellulose (CMC) 91 % of control | dose: 60.0 mg/kg/injection, schedule: Q01DX Z (oral), vehicle: carboxymethylcellulose (CMC) 96 % of control | dose: 120.0 mg/kg/injection, schedule: Q01DX Z (ip), vehicle: carboxymethylcellulose (CMC) 102 % of control | dose: 120.0 mg/kg/injection, schedule: Q01DX Z (oral), vehicle: carboxymethylcellulose (CMC) 93 % of control | dose: 240.0 mg/kg/injection, schedule: Q01DX Z (oral), vehicle: carboxymethylcellulose (CMC) 88 % of control | dose: 480.0 mg/kg/injection, schedule: Q01DX Z (oral), vehicle: carboxymethylcellulose (CMC) 98 % of control

C=C(C)[P+](C)(c1ccccc1)c1ccccc1
inactive: dose: 2.5 mg/kg/injection, schedule: Q01DX001 (ip), vehicle: saline 102 % of control | [1] 105 % of control

Cc1ccccc1-c1nc2ncnc(N)c2[nH]1
inactive: dose: 31.8 mg/kg/injection, schedule: Q01DX001 (ip), vehicle: Klucel (hydroxypropylcellulose) (HPC) 104 % of control | dose: 62.5 mg/kg/injection, schedule: Q01DX001 (ip), vehicle: Klucel (hydroxypropylcellulose) (HPC) 109 % of control | dose: 125.0 mg/kg/injection, schedule: Q01DX001 (ip), vehicle: Klucel (hydroxypropylcellulose) (HPC) 101 % of control

O=C1OC(=O)C2C(c3ccccc3)=CC(c3ccccc3)=CC12 (stereo not given)
inactive: [2] 98 % of control | [3] 107 % of control | [4] 102 % of control

COC1OC2COc3ccccc3OC2C2C1N2C(C)=O (stereo not given)
inactive: dose: 100.0 mg/kg/injection, schedule: Q04DX002 (ip), vehicle: Klucel (hydroxypropylcellulose) (HPC) 113 % of control | dose: 200.0 mg/kg/injection, schedule: Q04DX002 (ip), vehicle: Klucel (hydroxypropylcellulose) (HPC) 98 % of control

CC(=O)OC1=C2C(C)(CCC(OC(C)=O)C2(C)C)C2=C(C1=O)C1(C)CCC(C(C)CCCC(C)C)C1(C)CC2=O (stereo not given)
inactive: [5] 87 % of control | [6] 87 % of control

COP(=O)(CCBr)OC
inactive: [2] 103 % of control | [7] 101 % of control | [8] 104 % of control | [3] 102 % of control | [9] 103 % of control | [10] 104 % of control | [4] 108 % of control | dose: 400.0 mg/kg/injection, schedule: Q01DX009 (ip), vehicle: saline 98 % of control | [11] 106 % of control

O=C(/C=C/c1cccc([N+](=O)[O-])c1)NCCBr
inactive: [12] 101 % of control | [13] 95 % of control | [14] 101 % of control | [15] 97 % of control | [16] 95 % of control

O=S(=O)(NC(=S)Nc1ccc(Cl)cc1)c1ccccc1
inactive: [5] 110 % of control | [6] 107 % of control | dose: 400.0 mg/kg/injection, schedule: Q04DX003 (ip), vehicle: saline with Tween-80 93 % of control

COC(=O)C(C)C(O)c1ccc(C)cc1 (stereo not given)
inactive: dose: 50.0 mg/kg/injection, schedule: Q01DX009 (ip), vehicle: saline with Tween-80 93 % of control | dose: 100.0 mg/kg/injection, schedule: Q01DX009 (ip), vehicle: saline with Tween-80 93 % of control | dose: 200.0 mg/kg/injection, schedule: Q01DX009 (ip), vehicle: saline with Tween-80 93 % of control

N#C/C(=C\c1c[nH]c2ccccc12)c1ccc([N+](=O)[O-])cc1
inactive: dose: 100.0 mg/kg/injection, schedule: Q04DX002 (ip), vehicle: gum acacia 95 % of control | dose: 200.0 mg/kg/injection, schedule: Q04DX002 (ip), vehicle: gum acacia 101 % of control

CCC(OO)(C1=NC(C)(C)CO1)c1ccncc1Br (stereo not given)
inactive: [17] 98 % of control | [13] 97 % of control | [18] 101 % of control | [15] 101 % of control | [16] 102 % of control

CCOc1cc[n+]([O-])cc1
inactive: [19] 90 % of control | [17] 96 % of control | [7] 90 % of control | [8] 100 % of control | [18] 108 % of control | [9] 90 % of control | [10] 96 % of control

O=S(=O)(CCl)Nc1ccccn1
inactive: [20] 96 % of control | [21] 106 % of control | dose: 200.0 mg/kg/injection, schedule: Q01DX009 (ip), vehicle: other 103 % of control | [22] 108 % of control | dose: 400.0 mg/kg/injection, schedule: Q01DX009 (ip), vehicle: other 102 % of control | [23] 100 % of control

O=[N+]([O-])c1ccc(O)c(C2OCCCO2)c1
inactive: [2] 101 % of control | [3] 98 % of control | [4] 101 % of control

O=[N+]([O-])c1ccc(F)c(Cl)c1
inactive: [20] 98 % of control | [21] 105 % of control | [22] 100 % of control | [23] 90 % of control

N#CCCN(CCC#N)c1ccc(C=O)cc1
inactive: [12] 97 % of control | [13] 111 % of control | [14] 103 % of control | [15] 93 % of control | [24] 96 % of control | [16] 98 % of control

O=C(Nc1ccc2c(O)cc(S(=O)(=O)O)cc2c1)Nc1ccc2c(O)cc(S(=O)(=O)O)cc2c1
inactive: [8] 96 % of control | [10] 108 % of control | [11] 108 % of control

NC(C(=O)O)C(N)(CC(=O)O)C(=O)O (stereo not given)
inactive: dose: 100.0 mg/kg/injection, schedule: Q04DX002 (ip), vehicle: saline with Tween-80 94 % of control | dose: 200.0 mg/kg/injection, schedule: Q04DX002 (ip), vehicle: saline with Tween-80 94 % of control | dose: 400.0 mg/kg/injection, schedule: Q04DX002 (ip), vehicle: saline with Tween-80 105 % of control

O=C(c1ccco1)C1Cc2ccccc2C1=O (stereo not given)
inactive: [12] 95 % of control | dose: 100.0 mg/kg/injection, schedule: Q04DX003 (ip), vehicle: alcohol 109 % of control | [14] 94 % of control | dose: 200.0 mg/kg/injection, schedule: Q04DX003 (ip), vehicle: alcohol 104 % of control | [24] 97 % of control | dose: 400.0 mg/kg/injection, schedule: Q04DX003 (ip), vehicle: alcohol 103 % of control

CNC(=N)c1ccc(NC(=N)c2ccc(NC(=O)c3ccc(C(=O)Nc4ccc(C(=N)Nc5ccc(C(=N)NC)cc5)cc4)cc3)cc2)cc1
inactive: dose: 6.25 mg/kg/injection, schedule: Q01DX Z (ip), vehicle: carboxymethylcellulose (CMC) 124 % of control | dose: 100.0 mg/kg/injection, schedule: Q01DX Z (ip), vehicle: carboxymethylcellulose (CMC) 119 % of control

O=C(OCCOCCN1CCCCC1)N1c2ccccc2Sc2cccnc21
inactive: [1] 104 % of control | dose: 6.25 mg/kg/injection, schedule: Q01DX009 (ip), vehicle: saline 102 % of control | dose: 10.0 mg/kg/injection, schedule: Q01DX001 (ip), vehicle: saline 101 % of control | dose: 12.5 mg/kg/injection, schedule: Q01DX009 (ip), vehicle: saline 107 % of control | dose: 20.0 mg/kg/injection, schedule: Q01DX001 (ip), vehicle: saline 98 % of control | dose: 25.0 mg/kg/injection, schedule: Q01DX009 (ip), vehicle: saline 103 % of control | dose: 25.0 mg/kg/injection, schedule: Q04DX003 (ip), vehicle: saline 106 % of control | dose: 40.0 mg/kg/injection, schedule: Q01DX001 (ip), vehicle: saline 101 % of control | [19] 101 % of control | dose: 50.0 mg/kg/injection, schedule: Q04DX003 (ip), vehicle: saline 111 % of control | dose: 80.0 mg/kg/injection, schedule: Q01DX001 (ip), vehicle: saline 101 % of control | [2] 98 % of control | [8] 106 % of control

Reference: PubChem BioAssay AID248 (DTP/NCI, 2004)
